Reference: patent publication US20070270421A1, “Novel pyridine Derivative and Pyrimidine Derivative (1)” (priority 2004, published 2007)

Target: T1, HGFR (His6-HGFR cytoplasmic domain) (Homo sapiens, UniProt P08581)
T1 construct: made in house; host or cells: Spodoptera frugiperda Sf9 insect cells (baculovirus, pFastBac-HT)
Test: Inhibitory activity against HGFR tyrosine kinase activity (HTRF)
Assay type: biochemical
Settings: biotin-poly(GT), ATP, 30° C. 10 min, read-out: IC50 (concentration necessary to inhibit HGFR kinase activity by 50%)
Text: The cytoplasmic domain of HGFR (Genbank Accession No. J02958) is a 1.3 kb DNA fragment beginning with Lys974 and including a stop codon, and described by Park et al. (Proc. Natl. Acad. Sci. U.S.A. 84(18), 6379-6383, 1987). The DNA fragment was isolated from the human placental cDNA library (purchased from Clontech) by PCR (TaKaRa Ex Taq™ Kit, purchased from TaKaRa) using two kinds of primers (SEQ ID NO: 1, 5′-[…]-3′ and SEQ ID NO: 2, 5′-[…]-3′, purchased from Invitrogen). The DNA fragment was cloned into a baculovirus transplace vector (pFastBac™-HT (purchased from GIBCO BRL)) to produce a recombinant construct. The construct was transfected into insect cells (Spodoptera frugiperda 9 (Sf9)) to produce a solution of HGFR transfected baculovirus (preparation of a recombinant baculovirus can be found in the standard text (Bac-to-Bac Baculovirus Expression System (GIBCO BRL)). The cloning of the other receptor tyrosine kinases and preparation of the recombinant baculovirus solutions were performed using a cytoplasmic fragment starting from Lys791 (VEGFR2, Genbank Accession No. L04947), a cytoplasmic fragment starting from Lys398 (FGFR1, Genbank Accession No. X52833) and a cytoplasmic fragment starting from Lys558 (PDGFRβ, Genbank Accession No. M21616) in stead of HGFR in the above method. EGFR was purchased from Sigma (Production No. E-2645).
To the suspension of Sf9 cells (3×10^8 cells) in SF-900II medium (purchased from Invitrogen) containing 2% FBS was added a solution of HGFR transfected baculovirus above (4 ml), followed by a shaking culture at 27° C. for 48 hrs. The cells infected with the HGFR transfected baculovirus were centrifuged at 1,000 rpm, 4° C. for 5 min to remove the supernatant. The precipitated infected cells were suspended in 80 ml of ice-cold PBS, and centrifuged at 1,000 rpm, 4° C. for 5 min to remove the supernatant. The precipitated infected cells were suspended in 40 ml of ice-cold Lysis Buffer (50 mM Tris-HCl (pH 8.5), 5 mM 2-mercaptoethanol, 100 mM KCl, 1 mM PMSF and 1% (v/v) NP-40). The suspension was centrifuged at 12,000 rpm, 4° C. for 30 min to provide a supernatant.
The supernatant was loaded onto an Ni-NTA agarose column (3 ml, purchased from Qiagen) equilibrated with 30 ml of Buffer A (20 mM Tris-HCl (pH 8.5), 5 mM 2-mercaptoethanol, 500 mM KCl, 20 mM imidazole and 10% (v/v) glycerol). The column was washed with 30 ml of Buffer A, 6 ml of Buffer B (20 mM Tris-HCl (pH 8.5), 5 mM 2-mercaptoethanol, 1 M KCl, and 10% (v/v) glycerol) and 6 ml of Buffer A in this order. Then, the column was eluted with 6 ml of Buffer C (20 mM Tris-HCl (pH 8.5), 5 mM 2-mercaptoethanol, 100 mM KCl, 100 mM imidazole, and 10% (v/v) glycerol) to provide a fraction. The fraction was entrapped in a dialysis membrane (purchased from Spectrum Laboratories), dialyzed at 4° C. overnight with 1 L of dialysis buffer (20 mM Tris-HCl (pH 7.5), 10% (v/v) glycerol, 1 mM dithiothreitol, 0.1 mM Na3VO4 and 0.1 mM EGTA), and stored at −80° C. until used. An aliquot of the dialyzed fraction was subjected to SDS electrophoresis, and then a recombinant protein (His6-HGFR, the HGFR cytoplasmic domain fused with six histidine at the N terminus) detected at a molecular weight of about 60 kDa when stained with Coomassie Brilliant Blue, was determined with regard to protein content using BSA (purchased from Sigma) as a standard. The VEGFR2 cytoplasmic domain, the FGFR1 cytoplasmic domain, and the PDGFRβ cytoplasmic domain were fused with six histidine at the N terminus by the similar method to produce respective recombinant proteins (His6-VEGFR2, His6-FGFR1, and His6-PDGFRβ). […]

T1 sequence (P08581 956-1390 limits assumed): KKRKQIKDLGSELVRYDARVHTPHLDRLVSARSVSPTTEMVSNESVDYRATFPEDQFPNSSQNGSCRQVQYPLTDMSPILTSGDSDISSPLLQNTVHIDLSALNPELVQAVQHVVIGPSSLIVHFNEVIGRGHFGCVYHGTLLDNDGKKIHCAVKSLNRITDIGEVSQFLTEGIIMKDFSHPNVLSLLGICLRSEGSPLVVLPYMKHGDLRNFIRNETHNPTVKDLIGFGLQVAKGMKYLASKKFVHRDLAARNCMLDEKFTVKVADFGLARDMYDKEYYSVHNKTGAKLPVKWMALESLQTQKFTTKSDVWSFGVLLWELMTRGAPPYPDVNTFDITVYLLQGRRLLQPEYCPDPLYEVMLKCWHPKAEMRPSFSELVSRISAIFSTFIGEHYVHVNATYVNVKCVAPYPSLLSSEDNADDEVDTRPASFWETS

SMILES	IC50
O=C(Cc1ccc(F)cc1)NC(=O)Nc1ccc(Oc2ccnc(NC(=O)N3CCC(CN4CCCC4)CC3)c2)cc1 [Example 390, 4-(Pyrrolidin-1-ylmethyl)piperidine-1-carboxylic acid [4-(4-{3-[2-(4-fluorophenyl)acetyl]ureido}phenoxy)pyridin-2-yl]amide]	0.12 µM
O=C(Cc1ccccc1)NC(=O)Nc1ccc(Oc2ccnc(NC(=O)N3CCN(CCN4CCC4)CC3)c2)c(F)c1 [Example 387, 4-[2-(Azetidin-1-yl)ethyl]piperazine-1-carboxylic acid {4-[2-fluoro-4-(3-phenylacetylureido)phenoxy]pyridin-2-yl}amide]	0.12 µM
CN1CC(N2CCN(C(=O)Nc3cc(Oc4ccc(NC(=S)NC(=O)Cc5ccc(F)cc5)cc4F)ncn3)CC2)C1 [Example 196]	0.057 µM
CN1CCN(C2CCN(C(=O)Nc3cc(Oc4ccc(NC(=S)NC(=O)Cc5ccc(F)cc5)cc4)ccn3)CC2)CC1 [Example 191, 4-(4-{3-[2-(4-Fluorophenyl)acetyl]thioureido}phenoxy)-2-{[4-(1-methylpiperazin-4-yl)piperidin-1-yl]carbonylamino}pyridine]	0.057 µM
CN(C)CC1CCN(C(=O)Nc2cc(Oc3ccc(NC(=S)NC(=O)Cc4ccc(F)cc4)cc3F)ncn2)CC1 [Example 180, 4-{[4-(Dimethylaminomethyl)piperidin-1-yl]carbonylamino}-6-(2-fluoro-4-{3-[2-(4-fluorophenyl)acetyl]thioureido}phenoxy)pyrimidine]	0.038 µM
O=C(Cc1ccc(F)cc1)NC(=O)Nc1ccc(Oc2ccnc(NC(=O)N3CCN(CCN4CCC4)CC3)c2)cc1 [Example 389, 4-[2-(Azetidin-1-yl)ethyl]piperazine-1-carboxylic acid [4-(4-{3-[2-(4-fluorophenyl)acetyl]ureido}phenoxy)pyridin-2-yl]amide]	0.13 µM
CN(C)CCN1CCC(N(C)C(=O)Nc2cc(Oc3ccc(NC(=O)NC(=O)Cc4ccccc4)cc3F)ccn2)CC1 [Example 353, 1-[1-(2-Dimethylaminoethyl)piperidin-4-yl]-3-{4-[2-fluoro-4-(3-phenylacetylureido)phenoxy]pyridin-2-yl}-1-methylurea]	0.18 µM
CN1CC(N2CCC(N(C)C(=O)Nc3cc(Oc4ccc(NC(=S)NC(=O)Cc5ccc(F)cc5)cc4F)ncn3)CC2)C1 [Example 391, 3-(6-{2-Fluoro-4-[3-(4-fluorophenyl)acetylthioureido]phenoxy}pyrimidin-4-yl)-1-methyl-1-[1-(1-methylazetidin-3-yl)piperidin-4-yl]urea]	0.083 µM

Continued, values first:

IC50	SMILES
0.055 µM	O=C(Cc1ccc(F)cc1)NC(=S)Nc1ccc(Oc2cc(NC(=O)N3CCC(CN4CCC4)CC3)ncn2)c(F)c1 [Example 392, 4-(Azetidin-1-ylmethyl)piperidine-1-carboxylic acid [6-(2-fluoro-4-{3-[2-(4-fluorophenyl)acetyl]thioureido}phenoxy)pyrimidin-4-yl]amide]
0.047 µM	O=C(Cc1ccccc1)NC(=S)Nc1ccc(Oc2ccnc(NC(=O)N3CCC(CN4CCC4)CC3)c2)c(F)c1 [Example 395, 4-(Azetidin-1-ylmethyl)piperidine-1-carboxylic acid {4-[2-fluoro-4-(3-phenylacetylthioureido)phenoxy]pyridin-2-yl}amide]
0.026 µM	CN(C)C1CCN(C(=O)Nc2cc(Oc3ccc(NC(=S)NC(=O)Cc4ccccc4)cc3F)ccn2)CC1 [Example 38, 2-{[4-(Dimethylamino)piperidin-1-yl]carbonylamino}-4-{2-fluoro-4-[3-(2-phenylacetyl)thioureido]phenoxy}pyridine]
0.045 µM	O=C(Cc1ccc(F)cc1)NC(=S)Nc1ccc(Oc2ccnc(NC(=O)N3CCC(CN4CCC4)CC3)c2)cc1 [Example 394, 4-(Azetidin-1-ylmethyl)piperidine-1-carboxylic acid [4-(4-{3-[2-(4-fluorophenyl)acetyl]thioureido}phenoxy)pyridin-2-yl]amide]
